In patent US11154515B2, “Pharmaceutical compositions comprising cannabidiol and beta-caryophyllene and methods for their use” (priority 2017, dated 2021):
“And” between values parts separate entries of the source, which are not always exact repeats. Equal values may be shown once. Read-outs that look alike come from different tables or passages of the source.

What was measured:
IL-1α gene expression = IL-1α gene expression (RT-qPCR) in LPS-stimulated RAW 264.7 macrophages; format: cell-based, murine; settings: for reduction of LPS-induced expression of IL-1α vs untreated, LPS-stimulated controls (FIG. 3A): CBD 0.1 μM, BCP 0.013 μM (p<0.001), combination 0.1 μM + 0.013 μM (7.7:1, p<0.001); for % decrease in IL1α expression: Table 3A experiment; for % Inhibition Alone, IL-1α gene expression: Table 3B/6 experiment
Procedure: RAW 264.7 cells were cultured in Dulbecco's Modified Eagle's Medium (high glucose DMEM, Sigma-Aldrich) supplemented with 10% fetal bovine serum (FBS), 1% L-glutamine, 1% Sodium-pyruvate, 1% Penicillin-Streptomycin (culture medium). The cells were maintained in T75 flasks at 37° C. in humidified air containing 5% CO2 in an incubator and passaged every second-third day.
For drug treatment and LPS stimulation, 200,000 cells/well were seeded in 1.5 mL culture medium in a 6-well plate and incubated to allow attachment to the cell culture plate. After attachment, cells were incubated with various concentrations of CBD (0.1 μM, 0.3 μM, 1 μM, 3 μM, 5 μM, 10 μM, and 30 μM) or BCP (0.001 μM, 0.01 μM, 0.013 μM, 0.1 μM, 0.3 μM, 1 μM, 3 μM, 5 μM, 10 μM, and 100 μM), or vehicle (control) for 2 hrs. After the 2 h incubation, 0.1 μg/mL LPS was added to each well to induce inflammation and cells were incubated with LPS for 24 hrs.
After the 24 h incubation with LPS, the cells were harvested and gene expression of the pro-inflammatory cytokines interleukin (IL)-1α, IL-1β were measured by quantitative real-time polymerase chain reaction (RT-qPCR) on a Roche Light Cycler 480 QPCR System (Roche Applied Sciences) using the 5′ nuclease assay. Total RNA was isolated using TRIzol (LifeTechnologies), DNase treatment was performed according to the manufacturer's protocol, and then 1 μg of total RNA was reverse-transcribed into cDNA using High Capacity cDNA Kit from Life Technologies Corporation. PCR amplification was performed using the TaqMan primers and probes (assay IDs: Mm00439620_m1 for murine Il1a; Mm00434228_m1 for murine Il1b, Mm00446190_m1 for murine 116, Mm00441263_m1 for murine Cxcl15/Il8). Expression of the housekeeping gene, Gapdh, was used (assay ID: […]) as an internal control. The amount of the transcripts was normalized to those of the housekeeping gene using the ΔCT method. Results are expressed as % decrease in the expression levels of IL1α and IL1β in drug-treated, LPS-stimulated groups compared to the expression of each cytokine gene in the vehicle-treated, LPS-stimulated group (regarded as 100%). All experiments were repeated 2-3 times.
For statistical analysis, data were analyzed and graphs were plotted using Origin Pro Plus 6.0 software (Microcal, Northampton, Mass., USA) and Student's two-tailed two samples t-test. p<0.05 values were regarded as significant differences.

[1] = test system: NF-κB and AP-1 inducible SEAP reporter in RAW-Blue™ cells; experiment: RAW-Blue™ cells Quanti-Blue™ SEAP reporter assay, LPS-stimulated (high-throughput inflammatory assay); format: cell-based, murine
Excerpt: RAW 264.7 macrophages are commonly used to study the functional characteristics of the endocannabinoid system (ECS). Specifically, this model is widely employed to assess the anti-inflammatory functions of the ECS (Carrier, et al. 2006, “Inhibition of an equilibrative nucleoside transporter by cannabidiol: A mechanism of cannabinoid immunosuppression,” PNAS, 103(20), 7895-7900). RAW-Blue™ cells are derived from RAW 264.7 macrophages and are genetically modified to comprise a secreted embryonic alkaline phosphatase (SEAP) reporter construct that is inducible by NF-κB and AP-1. These RAW-Blue™ cells express a variety of pattern recognition receptors, including Toll like receptor 4 (TLR4). The activation of these pattern recognition receptors on the RAW-Blue™ cells (e.g., by lipopolysaccharide (LPS) in the case of TLR4) induces signaling through NF-κB and/or AP-1, thereby leading to increased secretion of the SEAP reporter gene. Therefore, the RAW-Blue™ macrophages and provide a robust, high-throughput model of inflammatory processes.
RAW-Blue™ cells were cultured in high-glucose containing Dulbecco's Modified Eagle Medium (Merck) supplemented with 10 (V/V) % fetal bovine serum (FBS; ThermoFisher), 2-4 mM L-glutamine, 50 U/mL penicillin, 50 μg/mL streptomycin as well as with antibiotics for selection: 100 μg/mL Normocin™ (InvivoGen) and Zeocin™ (InvivoGen). Cells were cultured at 37° C. in humidified, 5% CO2 containing atmosphere. The medium was changed every other day, and cells were sub-cultured at 70-80% confluence.
For each of these phases, 100,000 RAW-Blue™ cells/well were seeded in a 96-well plate in triplicate and cultured for 24 hours to allow attachment of the macrophages to the cell culture plate. After 24 hrs cells were pre-treated with selected concentrations of CBD, BCP, or CBD+BCP. Two hours after drug pre-treatment, cells were stimulated with 0.1 μg/mL LPS (Sigma-Aldrich) to induce activation of the TLR4 pathway. After 24 hours of LPS stimulation, 150 μL Quanti-Blue™ Medium was aliquoted per well in a 96-well plate and 50 μL of the experimental supernatants were added per well. Cell culture medium was used as negative control. After 1 hour incubation, SEAP levels were detected by measuring absorbance levels at λ=650 nm at 37° C. Results are expressed as a % decrease in SEAP levels in drug-treated, LPS-stimulated groups compared to the SEAP level of the untreated, LPS-stimulated group (regarded as 100%). All experiments were repeated 2-3 times.

[2] = Table 4 Exp. 1: CBD 0.1 μM, BCP 0.013 μM, CBD + BCP 0.1 μM + 0.013 μM
[3] = Table 4 Exp. 2: CBD 1 μM, BCP 0.13 μM, CBD + BCP 1 μM + 0.13 μM
[4] = Mus musculus, RAW-Blue, read-out: % Inhibition Alone

Structure (SMILES): C=C1CC/C=C(\C)CC[C@H]2[C@H]1CC2(C)C [BCP, (E)-beta-caryophyllene]
- reduction of LPS-induced expression of IL-1α vs untreated, LPS-stimulated controls (FIG. 3A) (IL-1α gene expression): did significantly reduce
- anti-inflammatory actions when applied alone (IL-1α gene expression; IL-1α and IL-1β gene expression): only minor (if any) anti-inflammatory actions
- % decrease in IL1α expression (IL-1α gene expression; single agent 0.1 μM): 2%
- % decrease in IL1α expression (IL-1α gene expression; single agent 1 μM): 18%
- % decrease in IL1α expression (IL-1α gene expression; single agent 5 μM): 26%
- % decrease in IL1α expression (IL-1α gene expression; single agent 10 μM): 0%
- % Inhibition Alone, IL-1α gene expression (IL-1α gene expression; single agent 0.001 μM): 0%
- % Inhibition Alone, IL-1α gene expression (IL-1α gene expression; single agent 0.01 μM): 0%
- % Inhibition Alone, IL-1α gene expression (IL-1α gene expression; single agent 0.1 μM): 1.8 ± 0.2%
- % Inhibition Alone, IL-1α gene expression (IL-1α gene expression; single agent 0.3 μM): 5.8 ± 1.2%
- % Inhibition Alone, IL-1α gene expression (IL-1α gene expression; single agent 1 μM): 0%
- % Inhibition Alone, IL-1α gene expression (IL-1α gene expression; single agent 3 μM): 0%
- % Inhibition Alone, IL-1α gene expression (IL-1α gene expression; single agent 10 μM): 8.2 ± 4.1%
- % decrease in IL-1α gene expression (IL-1α gene expression; [2]): 32%
- % decrease in IL-1α gene expression (IL-1α gene expression; [3]): 0%
- inhibition at 0.0001 µM [1, 4]: 0%
- inhibition at 0.001 µM [1, 4]: 1 ± 0.8%
- inhibition at 0.01 µM [1, 4]: 3.8 ± 1.9%
- inhibition at 0.013 µM [1, 4]: 9.2%
- inhibition at 0.1 µM [1, 4]: 8 ± 6.4%
- inhibition at 0.13 µM [1, 4]: 0%
- inhibition at 0.3 µM [1, 4]: 1.6 ± 1.4%
- inhibition at 1 µM [1, 4]: 2.5 ± 2%
- inhibition at 3 µM [1, 4]: 1.25 ± 1%
- inhibition at 10 µM [1, 4]: 28.6 ± 14.3%
- inhibition at 30 µM [1, 4]: 0%
- inhibition at 100 µM [1, 4]: 11.7 ± 5.8%
- inhibition at 300 µM [1, 4]: 92.2 ± 17.1%
- anti-inflammatory actions when applied alone ([1]; SEAP levels): only minor (if any) anti-inflammatory actions
- % Inhibition Alone ([1]; single agent 300 μM, * possibly cytotoxicity): *92.2 ± 17.1%

Structure (SMILES): C=C(C)[C@@H]1CCC(C)=C[C@H]1c1c(O)cc(CCCCC)cc1O [CBD, cannabidiol]
- reduction of LPS-induced expression of IL-1α vs untreated, LPS-stimulated controls (FIG. 3A) (IL-1α gene expression): did not significantly reduce
- % decrease in IL1α expression (IL-1α gene expression; single agent 0.1 μM): 13%
- % decrease in IL1α expression (IL-1α gene expression; single agent 1 μM): 4%
- % decrease in IL1α expression (IL-1α gene expression; single agent 5 μM): 10%
- % decrease in IL1α expression (IL-1α gene expression; single agent 10 μM): 21%
- % Inhibition Alone, IL-1α gene expression (IL-1α gene expression; single agent 0.1 μM): 0%
- % Inhibition Alone, IL-1α gene expression (IL-1α gene expression; single agent 0.3 μM): 3.2 ± 0.2%
- % Inhibition Alone, IL-1α gene expression (IL-1α gene expression; single agent 1 μM): 34.5 ± 6.2%
- % Inhibition Alone, IL-1α gene expression (IL-1α gene expression; single agent 3 μM): 55.5 ± 4.7% and 55.5 ± 47%
- % decrease in IL-1α gene expression (IL-1α gene expression; [2]): 0%
- % decrease in IL-1α gene expression (IL-1α gene expression; [3]): 42%
- concentrations with marked anti-inflammatory effects (IL-1α gene expression; applied alone, IL-1α and IL-1β gene expression): ≥ 1 µM
- inhibition at 10 pM ([1]; Mus musculus, RAW-Blue, single agent 0.00001 μM, read-out: % Inhibition Alone): 1.9 ± 0.9%
- inhibition at 0.0001 µM ([1]; Mus musculus, RAW-Blue, single agent 0.0001 μM, read-out: % Inhibition Alone): 2.4 ± 2%
- inhibition at 0.001 µM ([1]; Mus musculus, RAW-Blue, single agent 0.001 μM, read-out: % Inhibition Alone): 3.1 ± 3.1%
- inhibition at 0.01 µM ([1]; Mus musculus, RAW-Blue, single agent 0.01 μM, read-out: % Inhibition Alone): 5.8 ± 2.9%
- inhibition at 0.1 µM ([1]; Mus musculus, RAW-Blue, single agent 0.1 μM, read-out: % Inhibition Alone): 8.5%
- inhibition at 0.3 µM ([1]; Mus musculus, RAW-Blue, single agent 0.3 μM, read-out: % Inhibition Alone): 10 ± 0.8%
- inhibition at 1 µM ([1]; Mus musculus, RAW-Blue, single agent 1 μM, read-out: % Inhibition Alone): 44.6%
- inhibition at 3 µM ([1]; Mus musculus, RAW-Blue, single agent 3 μM, read-out: % Inhibition Alone): 40.5 ± 9.5%
- inhibition at 10 µM ([1]; Mus musculus, RAW-Blue, single agent 10 μM, read-out: % Inhibition Alone): 59.3 ± 3.7%
- inhibition at 30 µM ([1]; Mus musculus, RAW-Blue, single agent 30 μM, CBD value flagged * possibly cytotoxicity, read-out: % Inhibition Alone): 78 ± 7.9%
- concentrations with marked effects on SEAP levels ([1]; applied alone): ≥ 1 µM
- % Inhibition Alone ([1]; single agent 30 μM, CBD value flagged * possibly cytotoxicity): *78 ± 7.9%
